# Data as given in paper PMC5218480 (PLoS ONE, 2017).
# System: MV-4-11 cells
# Test: Gene expression microarray analysis (Affymetrix PrimeView) and GSEA
# Type: cell-based, human
# Set-up: RFU PODN (11730768_x_at) / Fold change /veh PODN (11730768_x_at) / RFU LINC00158 (11744669_a_at) / Fold change /veh LINC00158 (11744669_a_at) / RFU DUSP10 (11751237_a_at) / Fold change /veh DUSP10 (11751237_a_at) / RFU ID3 (11757404_x_at) / Fold change /veh ID3 (11757404_x_at) / RFU PLEKHG5 (11737974_s_at) / Fold change /veh PLEKHG5 (11737974_s_at) / RFU LRRC4B (11730491_at) / Fold change /veh LRRC4B (11730491_at) / RFU GIMAP4 (11747438_a_at) / Fold change /veh GIMAP4 (11747438_a_at) / RFU KRT8 (11758183_x_at) / Fold change /veh KRT8 (11758183_x_at) / RFU CNN1 (11734310_a_at) / Fold change /veh CNN1 (11734310_a_at) / RFU VPS37D (11726825_at) / Fold change /veh VPS37D (11726825_at) / RFU C10orf10 (11716522_x_at) / Fold change /veh C10orf10 (11716522_x_at) / RFU KIR2DL2 /// KIR2DL4 /// KIR2DL5A /// KIR2DL5B /// KIR2DS1 /// KIR2DS2 /// KIR2DS3 /// KIR2DS4 /// KIR3DL3 /// KIR3DL3 /// KIR3DS1 (11738374_at) / Fold change /veh KIR2DL2 /// KIR2DL4 /// KIR2DL5A /// KIR2DL5B /// KIR2DS1 /// KIR2DS2 /// KIR2DS3 /// KIR2DS4 /// KIR3DL3 /// KIR3DL3 /// KIR3DS1 (11738374_at) / RFU C1QL1 (11718748_at) / Fold change /veh C1QL1 (11718748_at) / RFU TMPRSS4 (11747572_a_at) / Fold change /veh TMPRSS4 (11747572_a_at) / RFU HAMP (11756126_x_at) / Fold change /veh HAMP (11756126_x_at) / RFU RNFT2 (11725882_a_at) / Fold change /veh RNFT2 (11725882_a_at) / RFU NR4A2 (11747474_a_at) / Fold change /veh NR4A2 (11747474_a_at) / RFU ABCC12 (11746883_a_at) / Fold change /veh ABCC12 (11746883_a_at) / RFU TMEM136 (11760407_x_at) / Fold change /veh TMEM136 (11760407_x_at) / RFU CLDN22 /// WWC2 (11732394_at) / Fold change /veh CLDN22 /// WWC2 (11732394_at) / RFU HLA-DPB1 (11760878_x_at) / Fold change /veh HLA-DPB1 (11760878_x_at) / RFU SPINT1 (11716480_a_at) / Fold change /veh SPINT1 (11716480_a_at) / RFU GAP43 (11754022_s_at) / Fold change /veh GAP43 (11754022_s_at) / RFU A4GNT (11735810_at) / Fold change /veh A4GNT (11735810_at) / RFU PRB3 (11715151_x_at) / Fold change /veh PRB3 (11715151_x_at) / RFU TUBB4B (11761932_at) / Fold change /veh TUBB4B (11761932_at) / RFU CAPN14 (11732068_a_at) / Fold change /veh CAPN14 (11732068_a_at) / RFU TMCC2 (11721928_a_at) / Fold change /veh TMCC2 (11721928_a_at) / RFU IRGQ (11745062_a_at) / Fold change /veh IRGQ (11745062_a_at) / RFU FAM174B (11720279_a_at) / Fold change /veh FAM174B (11720279_a_at) / RFU TMPRSS4 (11748680_a_at) / Fold change /veh TMPRSS4 (11748680_a_at) / RFU FAM212B (11763350_a_at) / Fold change /veh FAM212B (11763350_a_at) / RFU PLEKHG5 (11743358_a_at) / Fold change /veh PLEKHG5 (11743358_a_at) / RFU ZSCAN30 (11745921_a_at) / Fold change /veh ZSCAN30 (11745921_a_at) / RFU CMKLR1 (11741424_a_at) / Fold change /veh CMKLR1 (11741424_a_at) / RFU LOC101060620 /// MAPK8IP1 (11723275_at) / Fold change /veh LOC101060620 /// MAPK8IP1 (11723275_at) / RFU SPTSSB (11747773_x_at) / Fold change /veh SPTSSB (11747773_x_at) / RFU PRSS12 (11739890_at) / Fold change /veh PRSS12 (11739890_at) / RFU BIN1 (11741810_x_at) / Fold change /veh BIN1 (11741810_x_at) / RFU WNT11 (11732464_a_at) / Fold change /veh WNT11 (11732464_a_at) / RFU C10orf10 (11716521_a_at) / Fold change /veh C10orf10 (11716521_a_at) / RFU C5orf56 (11738089_at) / Fold change /veh C5orf56 (11738089_at) / RFU CYB561 (11721691_x_at) / Fold change /veh CYB561 (11721691_x_at) / RFU ANKRD19P (11752326_a_at) / Fold change /veh ANKRD19P (11752326_a_at) / RFU OR2T12 /// OR2T33 /// OR2T8 (11738714_s_at) / Fold change /veh OR2T12 /// OR2T33 /// OR2T8 (11738714_s_at) / RFU VCAN (11748164_a_at) / Fold change /veh VCAN (11748164_a_at) / RFU JSRP1 (11732532_at) / Fold change /veh JSRP1 (11732532_at) / RFU KRTAP10-11 (11738290_x_at) / Fold change /veh KRTAP10-11 (11738290_x_at) / RFU MYO3A (11730013_a_at) / Fold change /veh MYO3A (11730013_a_at) / RFU EBF3 (11725865_a_at) / Fold change /veh EBF3 (11725865_a_at) / RFU CAMK2N1 (11719241_x_at) / Fold change /veh CAMK2N1 (11719241_x_at) / RFU C5orf56 (11738088_a_at) / Fold change /veh C5orf56 (11738088_a_at) / RFU OLFML3 (11715873_a_at) / Fold change /veh OLFML3 (11715873_a_at) / RFU LOC100653217 /// NTM (11731650_a_at) / Fold change /veh LOC100653217 /// NTM (11731650_a_at) / RFU MAPK11 (11762145_a_at) / Fold change /veh MAPK11 (11762145_a_at) / RFU FIZ1 (11724087_x_at) / Fold change /veh FIZ1 (11724087_x_at) / RFU OASL (11726364_x_at) / Fold change /veh OASL (11726364_x_at) / RFU SOX15 (11748057_x_at) / Fold change /veh SOX15 (11748057_x_at) / RFU CD79A (11719716_a_at) / Fold change /veh CD79A (11719716_a_at) / RFU HIST1H1D (11736915_at) / Fold change /veh HIST1H1D (11736915_at) / RFU CASKIN2 (11723855_a_at) / Fold change /veh CASKIN2 (11723855_a_at) / RFU LOC730098 (11760151_x_at) / Fold change /veh LOC730098 (11760151_x_at) / RFU OR4N2 (11742367_at) / Fold change /veh OR4N2 (11742367_at) / RFU PRRT2 (11749266_a_at) / Fold change /veh PRRT2 (11749266_a_at) / RFU SNX32 (11753110_a_at) / Fold change /veh SNX32 (11753110_a_at) / RFU CDHR5 (11726645_a_at) / Fold change /veh CDHR5 (11726645_a_at) / RFU RCAN1 (11760418_a_at) / Fold change /veh RCAN1 (11760418_a_at) / RFU FAM167A (11723789_a_at) / Fold change /veh FAM167A (11723789_a_at) / RFU FAM26E (11764081_at) / Fold change /veh FAM26E (11764081_at) / RFU ISYNA1 (11749810_s_at) / Fold change /veh ISYNA1 (11749810_s_at) / RFU ACY1 (11761880_at) / Fold change /veh ACY1 (11761880_at) / RFU 11764098_at / Fold change /veh 11764098_at / RFU SAMD14 (11745864_x_at) / Fold change /veh SAMD14 (11745864_x_at) / RFU NPB (11741838_a_at) / Fold change /veh NPB (11741838_a_at) / RFU TMPRSS6 (11731388_a_at) / Fold change /veh TMPRSS6 (11731388_a_at) / RFU KRTAP10-2 (11738614_at) / Fold change /veh KRTAP10-2 (11738614_at) / RFU ARHGAP8 /// PRR5-ARHGAP8 (11727945_x_at) / Fold change /veh ARHGAP8 /// PRR5-ARHGAP8 (11727945_x_at) / RFU KRTAP5-7 /// NADSYN1 (11734609_at) / Fold change /veh KRTAP5-7 /// NADSYN1 (11734609_at) / RFU RASL12 (11751679_a_at) / Fold change /veh RASL12 (11751679_a_at) / RFU CDKN2B (11736163_a_at) / Fold change /veh CDKN2B (11736163_a_at) / RFU PRF1 (11729649_at) / Fold change /veh PRF1 (11729649_at) / RFU, ZNF638 /// ZNF638-IT1 / Fold change vs veh, ZNF638 /// ZNF638-IT1 / RFU, PANK3 / Fold change vs veh, PANK3 / RFU, SH3YL1 / Fold change vs veh, SH3YL1 / RFU, ZEB2 / Fold change vs veh, ZEB2 / RFU, NRIP1 / Fold change vs veh, NRIP1 / RFU, PTTG1IP / Fold change vs veh, PTTG1IP / RFU, CAPN2 / Fold change vs veh, CAPN2 / RFU, MED14 / Fold change vs veh, MED14 / RFU, SNORA58 / Fold change vs veh, SNORA58 / RFU, C1orf63 / Fold change vs veh, C1orf63 / RFU, LRRFIP1 / Fold change vs veh, LRRFIP1 / RFU, NDUFAF7 / Fold change vs veh, NDUFAF7 / RFU, SLC12A2 / Fold change vs veh, SLC12A2 / RFU, IBTK / Fold change vs veh, IBTK / RFU, ESF1 / Fold change vs veh, ESF1 / Fold change vs veh, TMEM50B / RFU, TAOK1 / Fold change vs veh, TAOK1 / RFU, ACBD3 / Fold change vs veh, ACBD3 / RFU, TMA16 / Fold change vs veh, TMA16 / RFU, RWDD3 / Fold change vs veh, RWDD3 / RFU, BCAT1 / Fold change vs veh, BCAT1 / RFU, EDEM3 / Fold change vs veh, EDEM3 / RFU, TMEM33 / Fold change vs veh, TMEM33 / RFU, WDR75 / Fold change vs veh, WDR75 / RFU, AHCTF1 / Fold change vs veh, AHCTF1 / RFU, TFRC / Fold change vs veh, TFRC / RFU, ZDHHC17 / Fold change vs veh, ZDHHC17 / RFU, NOM1 / Fold change vs veh, NOM1 / RFU, ARL8B / Fold change vs veh, ARL8B / RFU, ZBTB11 / Fold change vs veh, ZBTB11 / RFU, TAMM41 / Fold change vs veh, TAMM41 / RFU, KIAA1704 /// LOC100996395 / Fold change vs veh, KIAA1704 /// LOC100996395 / RFU, ING1 / Fold change vs veh, ING1 / RFU, TRMT61B / Fold change vs veh, TRMT61B / RFU, FUBP3 / Fold change vs veh, FUBP3 / RFU, TP53 / Fold change vs veh, TP53 / RFU, TNKS2 / Fold change vs veh, TNKS2 / RFU, ZFP14 / Fold change vs veh, ZFP14 / RFU, ACTR2 / Fold change vs veh, ACTR2 / RFU, PPP3R1 / Fold change vs veh, PPP3R1 / RFU, PIK3R1 / Fold change vs veh, PIK3R1 / RFU, HNRNPA1 / Fold change vs veh, HNRNPA1 / RFU, RNF170 / Fold change vs veh, RNF170 / RFU, ZNF28 / Fold change vs veh, ZNF28 / RFU, RNGTT / Fold change vs veh, RNGTT / RFU, OGT / Fold change vs veh, OGT / RFU, BRD1 / Fold change vs veh, BRD1 / RFU, MARS / Fold change vs veh, MARS / RFU, ZNF655 / Fold change vs veh, ZNF655 / RFU, FAHD1 / Fold change vs veh, FAHD1 / RFU, BDP1 / Fold change vs veh, BDP1 / RFU, LRRCC1 / Fold change vs veh, LRRCC1 / RFU, ARID1A / Fold change vs veh, ARID1A / RFU, ZNF146 / Fold change vs veh, ZNF146 / RFU, ZNF330 / Fold change vs veh, ZNF330 / RFU, GPN3 / Fold change vs veh, GPN3 / RFU, C9orf123 / Fold change vs veh, C9orf123 / RFU, N4BP2L2 / Fold change vs veh, N4BP2L2 / RFU, ARFIP1 / Fold change vs veh, ARFIP1 / RFU, FAM179B / Fold change vs veh, FAM179B / RFU, BCL10 / Fold change vs veh, BCL10 / RFU, UHRF1BP1L / Fold change vs veh, UHRF1BP1L / RFU, BET1 / Fold change vs veh, BET1 / RFU, CNOT2 / Fold change vs veh, CNOT2 / RFU, ZNF268 / Fold change vs veh, ZNF268 / Fold change vs veh, ZNF507 / RFU, DGCR2 / Fold change vs veh, DGCR2 / RFU, WDSUB1 / Fold change vs veh, WDSUB1 / Fold change vs veh, HSP90B1 /// MIR3652 / RFU, ADSS / Fold change vs veh, ADSS / RFU, GK / Fold change vs veh, GK / RFU, ZNF148 / Fold change vs veh, ZNF148 / RFU, TAF9 / Fold change vs veh, TAF9 / RFU, SLC1A5 / Fold change vs veh, SLC1A5 / RFU, SLMO2 / Fold change vs veh, SLMO2 / RFU, ABCC4 / Fold change vs veh, ABCC4 / RFU, LOC101060439 /// RAP1B / Fold change vs veh, LOC101060439 /// RAP1B / RFU, RFX7 / Fold change vs veh, RFX7 / RFU, GTPBP10 / Fold change vs veh, GTPBP10 / RFU, CNEP1R1 / Fold change vs veh, CNEP1R1 / RFU, BIVM-ERCC5 /// ERCC5 / Fold change vs veh, BIVM-ERCC5 /// ERCC5 / RFU, ILF3 / Fold change vs veh, ILF3 / RFU 11762660_at / Fold change /veh 11762660_at / RFU VCAN (11757783_s_at) / Fold change /veh VCAN (11757783_s_at) / RFU DDX43 (11728927_at) / Fold change /veh DDX43 (11728927_at) / RFU KRT8 (11758188_x_at) / Fold change /veh KRT8 (11758188_x_at) / RFU NKD1 (11759106_at) / Fold change /veh NKD1 (11759106_at) / RFU SRD5A1 (11742802_a_at) / Fold change /veh SRD5A1 (11742802_a_at) / RFU TPSAB1 /// TPSB2 (11721975_s_at) / Fold change /veh TPSAB1 /// TPSB2 (11721975_s_at) / RFU GSTM3 (11746129_a_at) / Fold change /veh GSTM3 (11746129_a_at) / RFU IL23R (11737362_x_at) / Fold change /veh IL23R (11737362_x_at) / RFU TMEM51 (11727254_a_at) / Fold change /veh TMEM51 (11727254_a_at) / RFU PIWIL2 (11732686_x_at) / Fold change /veh PIWIL2 (11732686_x_at) / RFU ORM1 (11744905_x_at) / Fold change /veh ORM1 (11744905_x_at) / RFU CCDC152 (11743942_at) / Fold change /veh CCDC152 (11743942_at) / RFU ECM1 (11717891_a_at) / Fold change /veh ECM1 (11717891_a_at) / RFU IL23R (11748794_a_at) / Fold change /veh IL23R (11748794_a_at) / RFU TNFAIP8L3 (11732012_x_at) / Fold change /veh TNFAIP8L3 (11732012_x_at) / RFU MBOAT4 (11741988_at) / Fold change /veh MBOAT4 (11741988_at) / RFU 11764193_at / Fold change /veh 11764193_at / RFU TMEM53 (11763286_at) / Fold change /veh TMEM53 (11763286_at) / RFU MAGEB2 (11727129_at) / Fold change /veh MAGEB2 (11727129_at) / RFU TMEM200A (11744735_a_at) / Fold change /veh TMEM200A (11744735_a_at) / RFU CCDC152 (11751479_a_at) / Fold change /veh CCDC152 (11751479_a_at) / RFU FAM211A (11726209_a_at) / Fold change /veh FAM211A (11726209_a_at) / RFU RGS16 (11746705_a_at) / Fold change /veh RGS16 (11746705_a_at) / RFU VCAN (11755009_s_at) / Fold change /veh VCAN (11755009_s_at) / RFU RHOB (11743442_s_at) / Fold change /veh RHOB (11743442_s_at) / RFU RGS16 (11720943_a_at) / Fold change /veh RGS16 (11720943_a_at) / RFU RGS16 (11720944_at) / Fold change /veh RGS16 (11720944_at) / RFU, VPS4B / Fold change vs veh, VPS4B / RFU, CREB1 / Fold change vs veh, CREB1 / RFU, DNAJC13 / Fold change vs veh, DNAJC13 / RFU, GNAQ / Fold change vs veh, GNAQ / RFU, CDK5R1 / Fold change vs veh, CDK5R1 / RFU, ZRANB3 / Fold change vs veh, ZRANB3 / RFU, CUL4A / Fold change vs veh, CUL4A / RFU, CCNY / Fold change vs veh, CCNY / RFU, UFL1 / Fold change vs veh, UFL1 / RFU, COG3 / Fold change vs veh, COG3 / RFU, DIAPH2 / Fold change vs veh, DIAPH2 / RFU, SKA2 / Fold change vs veh, SKA2 / RFU, AFF3 / Fold change vs veh, AFF3 / RFU, LMF1 / Fold change vs veh, LMF1 / RFU, IPO11 / Fold change vs veh, IPO11 / RFU, DFFB / Fold change vs veh, DFFB / RFU, FOXP1 / Fold change vs veh, FOXP1 / RFU, CARD8 / Fold change vs veh, CARD8 / RFU, STRN3 / Fold change vs veh, STRN3 / RFU, ADK / Fold change vs veh, ADK / RFU, RASSF2 / Fold change vs veh, RASSF2 / RFU, WIPF1 / Fold change vs veh, WIPF1 / RFU, LARP1B / Fold change vs veh, LARP1B / RFU, RASA1 / Fold change vs veh, RASA1 / RFU, RB1 / Fold change vs veh, RB1 / RFU, PPFIA1 / Fold change vs veh, PPFIA1 / RFU, MAT2A / Fold change vs veh, MAT2A / RFU, CCT5 / Fold change vs veh, CCT5 / RFU, WDR92 / Fold change vs veh, WDR92 / RFU, CUX1 / Fold change vs veh, CUX1 / RFU, TTC7A / Fold change vs veh, TTC7A / RFU, TMEM135 / Fold change vs veh, TMEM135 / RFU, DEPTOR / Fold change vs veh, DEPTOR / RFU, CPM / Fold change vs veh, CPM / RFU, DNAJB6 / Fold change vs veh, DNAJB6 / RFU, CACNA2D3 / Fold change vs veh, CACNA2D3 / RFU, DTX4 / Fold change vs veh, DTX4 / RFU, TFCP2 / Fold change vs veh, TFCP2 / RFU, GMCL1 /// GMCL1P1 / Fold change vs veh, GMCL1 /// GMCL1P1 / RFU, AEBP2 / Fold change vs veh, AEBP2 / RFU, SNHG1 /// SNORD22 /// SNORD25 /// SNORD26 /// SNORD27 /// SNORD28 /// SNORD29 /// SNORD31 / Fold change vs veh, SNHG1 /// SNORD22 /// SNORD25 /// SNORD26 /// SNORD27 /// SNORD28 /// SNORD29 /// SNORD31 / Fold change (Aza/veh), C12orf56 (ProbeSet 11735607_a_at) / Fold change (ACY-1035/veh), C12orf56 (ProbeSet 11735607_a_at) / Fold change (Aza/veh), FGFR1OP (ProbeSet 11751329_s_at) / Fold change (ACY-1035/veh), FGFR1OP (ProbeSet 11751329_s_at) / Fold change (Aza/veh), VPS36 (ProbeSet 11739960_a_at) / Fold change (ACY-1035/veh), VPS36 (ProbeSet 11739960_a_at) / RFU SYPL1 (11715823_x_at) / Fold change /veh SYPL1 (11715823_x_at) / RFU IGFBP7 (11715501_s_at) / Fold change /veh IGFBP7 (11715501_s_at) / RFU REEP3 (11722064_at) / Fold change /veh REEP3 (11722064_at) / RFU IGLL1 (11728026_x_at) / Fold change /veh IGLL1 (11728026_x_at): dose or concentration left out as unconfirmed
# Settings: ProbeSet 11734782_x_at; LIST D
smiles,measurement,value
Nc1ccc(-c2cccs2)cc1NC(=O)c1ccc2c(c1)cc(C1CC1)n2CCN1CCOCC1 [ACY-1035],"RFU, WDR92",63.28 RFU
